Data from article PMC9505826, “A Peptide Inhibitor of the Human Cytomegalovirus Core Nuclear Egress Complex” (Pharmaceuticals, 2022).

What was measured:
HFF cells = assay: Neutral Red cytotoxicity assay; assay type: cell-based, human; conditions: peptides 0.008 µM to 100 µM, refreshed on day 5, read on day 7 of peptide treatment
Experimental: HFF cells were cultivated in 96-well plate with a density of 1.35 × 10^4 cells per well and incubated at 37 °C for 24 h. The cultured HFF cells were treated with peptides, at concentrations ranging from 0.008 µM to 100 µM, and incubated at 37 °C. On day 5, peptides were refreshed in the culture media and incubation was continued until day 7. A sample without compound (DMSO) served as a negative control, and a sample with 1 µM staurosporine (STP) as a positive control. On day seven, neutral red solution (40 µg/mL, Sigma Aldrich, N2889) was added to cultivated cells and incubated at 37 °C for […], followed by addition of destaining solution (ethanol/water/acetic acid, 50:49:1). Fluorescence was read at excitation/emission at 560/630 nm to quantify the uptake of neutral red.

HCMV AD169 = assay type: cell-based, human cytomegalovirus (HCMV strain AD169); conditions: for EC50: HFFs infected with HCMV AD169, MOI 0.1, peptides refreshed at 2, 5 and 7 d p.i., viral genome equivalents in supernatants at 8 d p.i. by qPCR, % of DMSO control, ± standard deviation, at least three independent experiments, read-out: EC50, antiviral effect; for effect on HCMV infection (in words): HFFs infected with HCMV AD169, qPCR of supernatants, concentrations up to 10 µM
Experimental: Primary human foreskin fibroblasts (HFFs) were cultivated in minimal essential medium (MEM). Cell culture media were supplemented with 1× GlutaMAXTM (35050038, Thermo Fisher Scientific), […] gentamicin and 10% fetal bovine serum (FBS, F7524, Sigma Aldrich). All cells were incubated at 37 °C, 5% CO2 and 80% humidity. For infection with human cytomegalovirus (HCMV strain AD169), 2 × 10^5 HFFs were seeded in 12-well plates for 1 day (d) prior to infection at a multiplicity of infection (MOI) of 0.1. After 90 min of viral absorption, cells were incubated with peptides in the culture media media, which was supplemented with 2.5% FBS, 1× GlutaMAX^TM and 10 µg/mL gentamicin, at the indicated concentrations at 37 °C for 4–8 days. Viral supernatants were collected at 4, 6 and 8 days post-infection (d.p.i.).
HFFs were seeded in 12-well plates, used for HCMV infection at a MOI of 0.1 and treated with the indicated concentrations of each peptide. […] The supernatants were centrifuged at 1500× g and digested with proteinase K at 56 °C for 1 h to release viral particles. The reactions were stopped at 95 °C for 5 min. The amount of extracellular viral genomic loads was assessed in […] of each sample by real-time PCR (TaqMan-PCR). Two primers, namely 5′CMV ([…]) and 3′CMV ([…]), which anneal to a sequence within the major immediate early gene region of HCMV, were obtained to amplify and quantify the viral genome. In addition, a FAM/TAMRA-labeled probe was used for detection. The viral load of a sample treated with DMSO only served as a negative control. HCMV genome equivalents from peptide-treated viral supernatants were calculated as % of the negative control.

[1] = target: T1, HCMV pUL50–pUL53 interaction (Human cytomegalovirus, UniProt P16791); assay: pUL50-pUL53 inhibition assay (plate-based, anti-His-HRP detection); assay type: binding; conditions: peptide serial dilutions starting at 10 µM
T1 construct: Recombinant pUL50 and pUL53 were produced and purified as previously described; made in house
T1 sequence (P16791 1-175): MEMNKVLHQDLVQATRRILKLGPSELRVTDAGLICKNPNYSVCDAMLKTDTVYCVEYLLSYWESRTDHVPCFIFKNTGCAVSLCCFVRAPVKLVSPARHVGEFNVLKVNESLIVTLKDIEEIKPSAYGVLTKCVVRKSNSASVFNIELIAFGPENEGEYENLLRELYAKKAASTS
Experimental: Inhibition assay. Recombinant pUL50 and pUL53 were produced and purified as previously described. High binding Immulon microtiter plates were coated with 100 µL pUL53 (1 µg/mL) in sodium carbonate buffer pH 9.5, overnight at 4 °C. After blocking with 200 µL 1% BSA in 0.1 M phosphate buffer, pH 7.2, for two hours, plates were incubated with 50 µL peptide in serial dilutions, starting at 10 µM, together with 50 µL His-tagged pUL50 (0.78 µg/mL) for two and a half hours. His-tagged pUL50 was detected using anti-His-HRP (Merck, Darmstadt, Germany, 1:100,000). All proteins and antibodies were in 0.1 M phosphate buffer, pH 7.2, containing 0.1% BSA and 0.01% Tween 20. Plates were washed four times with 0.01% Tween 20 in 0.1 M phosphate buffer, pH 7.2, after each incubation step. Plates were developed with o-phenylenediamine (OPD) (1 mg/mL) in the presence of 0.03% H2O2 for approximately 5 min in the dark. After the reaction was stopped with 50 µL 2 M H2SO4, absorbance was read at 492 nm. IC50 values were determined from the % inhibition data using the program GraphPad. Inhibition was calculated according to the following formula:% Inhibition = [1 − (Asample − Ablank1)/(A100% − Ablank2)] × 100 in which “100%” is a sample without inhibitor, “blank1” is a sample without pUL53, and “blank2” is a sample without pUL53 and without inhibitor.

Row | Compound | CC50, cytotoxic effect (HFF cells) [µM] | EC50 (HCMV AD169) [µM] | effect on HCMV infection (in words) (HCMV AD169) | inhibitory effect on the pUL50-pUL53 interaction (in words) [1]
1 | CC[C@H](C)[C@H](NC(=O)[C@H](C)NC(=O)[C@H](CCSC)NC(=O)[C@H](CCCCN)NC(=O)[C@H](CCSC)NC(=O)[C@H](CCSC)NC(=O)[C@H](CC(N)=O)NC(=O)[C@H](CC(C)C)NC(=O)[C@H](Cc1ccc(O)cc1)NC(=O)[C@H](CCCCN)NC(=O)[C@H](CC(C)C)NC(=O)[C@H](CCC(=O)O)NC(=O)[C@H](CC(C)C)NC(=O)[C@H](CCC(=O)O)NC(=O)[C@@H]1CCCN1C(=O)[C@H](Cc1c[nH]cn1)NC(=O)[C@H](CCC(=O)O)NC(=O)[C@H](CCCNC(=N)N)NC(=O)[C@H](Cc1ccccc1)NC(=O)[C@@H](NC(=O)[C@H](CC(=O)O)NC(=O)[C@H](Cc1c[nH]cn1)NC(=O)[C@H](CC(C)C)NC(=O)[C@H](CC(=O)O)NC(=O)[C@H](Cc1c[nH]cn1)NC(=O)[C@H](CC(C)C)NC(=O)[C@@H](NC(=O)[C@H](CC(C)C)NC(C)=O)[C@@H](C)O)[C@@H](C)CC)C(=O)N[C@H](C(N)=O)[C@@H](C)O [Hook peptide] | >100 | > 10 | no significant effect | –
2 | CC[C@H](C)[C@H](NC(=O)[C@H](C)NC(=O)[C@H](CCSC)NC(=O)[C@H](CCCCN)NC(=O)[C@H](CCSC)NC(=O)[C@H](CCSC)NC(=O)[C@H](CC(N)=O)NC(=O)[C@H](CC(C)C)NC(=O)[C@H](Cc1ccc(O)cc1)NC(=O)[C@H](CCCCN)NC(=O)[C@H](CC(C)C)NC(=O)[C@H](CCC(=O)O)NC(=O)[C@H](CC(C)C)NC(=O)[C@H](CCC(=O)O)NC(=O)[C@@H]1CCCN1C(=O)[C@H](Cc1c[nH]cn1)NC(=O)[C@H](CCC(=O)O)NC(=O)[C@H](CCCNC(=N)N)NC(=O)[C@H](Cc1ccccc1)NC(=O)[C@@H](NC(=O)[C@H](CC(=O)O)NC(=O)[C@H](Cc1c[nH]cn1)NC(=O)[C@H](CC(C)C)NC(=O)[C@H](CC(=O)O)NC(=O)[C@H](Cc1c[nH]cn1)NC(=O)[C@H](CC(C)C)NC(=O)[C@@H](NC(=O)[C@H](CC(C)C)NC(=O)COCCOCCNC(=O)[C@@H]1CCCN1C(=O)[C@@H]1CCCN1C(=O)[C@H](CCCNC(=N)N)NC(=O)[C@H](CCCNC(=N)N)NC(=O)[C@H](CCCNC(=N)N)NC(=O)[C@H](CCC(N)=O)NC(=O)[C@H](CCCNC(=N)N)NC(=O)[C@H](CCCNC(=N)N)NC(=O)[C@H](CCCCN)NC(=O)[C@H](CCCCN)NC(=O)[C@H](CCCNC(=N)N)NC(=O)CNC(=O)[C@H](Cc1ccc(O)cc1)NC(=O)COCCOCCNC(=O)[C@H](CCCNC(=N)N)NC(=O)[C@H](CCC(N)=O)NC(=O)[C@H](CCCNC(=N)N)NC(=O)[C@H](CCCNC(=N)N)NC(=O)[C@H](CCCCN)NC(=O)[C@H](CCCNC(=N)N)NC(=O)[C@H](CC(C)C)NC(=O)[C@H](CC(C)C)NC(=O)[C@H](CO)NC(=O)[C@H](CCCNC(=N)N)NC(C)=O)[C@@H](C)O)[C@@H](C)CC)C(=O)N[C@H](C(N)=O)[C@@H](C)O [NLS-CPP-Hook] | 44.2 ± 6.9 | 5.6 ± 0.78 | – | –
3 | CC(=O)N[C@@H](CCCNC(=N)N)C(=O)N[C@@H](CO)C(=O)N[C@@H](CC(C)C)C(=O)N[C@@H](CC(C)C)C(=O)N[C@@H](CCCNC(=N)N)C(=O)N[C@@H](CCCCN)C(=O)N[C@@H](CCCNC(=N)N)C(=O)N[C@@H](CCCNC(=N)N)C(=O)N[C@@H](CCC(N)=O)C(=O)N[C@@H](CCCNC(=N)N)C(=O)NCCOCCOCC(=O)N[C@@H](Cc1ccc(O)cc1)C(=O)NCC(=O)N[C@@H](CCCNC(=N)N)C(=O)N[C@@H](CCCCN)C(=O)N[C@@H](CCCCN)C(=O)N[C@@H](CCCNC(=N)N)C(=O)N[C@@H](CCCNC(=N)N)C(=O)N[C@@H](CCC(N)=O)C(=O)N[C@@H](CCCNC(=N)N)C(=O)N[C@@H](CCCNC(=N)N)C(=O)N[C@@H](CCCNC(=N)N)C(=O)N1CCC[C@H]1C(=O)N1CCC[C@H]1C(N)=O [NLS-CPP] | – | – | no significant effect | completely inactive
